This is an account of results in patent US20220073532A1, “INHIBITORS OF CGAS ACTIVITY AS THERAPEUTIC AGENTS” (BELLBROOK LABS, LLC, priority 2019, published 2022).

SMILES strings stand for the structures. Like-named read-outs stand apart in the source and are kept apart here. Bounds are passed on as bounds.

The target of this assay is cGAS (Homo sapiens, UniProt Q8N884). Description: cGAS enzymatic assay (FP/TR-FRET detection of cGAMP). Type of assay: biochemical. Details: The cGAS assay was used to screen 100,000 compounds with full-length human cGAS; 6xHis; made in house. The note with it: cGAS (30 nM). The method, then: Some exemplary compounds of the disclosure were tested for inhibition of cGAS (30 nM). The results are provided in Table 1 where “A” indicates an IC50 of less than 100 nM, “B” indicates an IC50 of greater than 100 nM and less than 500 nM, “C” indicates an IC50 of greater than 500 nM and less than 1 μM, “D” indicates an IC50 of greater than 1 μM and less than 10 μM, and “E” indicates an IC50 of greater than 10 μM.
Chain of cGAS (Q8N884 whole entry): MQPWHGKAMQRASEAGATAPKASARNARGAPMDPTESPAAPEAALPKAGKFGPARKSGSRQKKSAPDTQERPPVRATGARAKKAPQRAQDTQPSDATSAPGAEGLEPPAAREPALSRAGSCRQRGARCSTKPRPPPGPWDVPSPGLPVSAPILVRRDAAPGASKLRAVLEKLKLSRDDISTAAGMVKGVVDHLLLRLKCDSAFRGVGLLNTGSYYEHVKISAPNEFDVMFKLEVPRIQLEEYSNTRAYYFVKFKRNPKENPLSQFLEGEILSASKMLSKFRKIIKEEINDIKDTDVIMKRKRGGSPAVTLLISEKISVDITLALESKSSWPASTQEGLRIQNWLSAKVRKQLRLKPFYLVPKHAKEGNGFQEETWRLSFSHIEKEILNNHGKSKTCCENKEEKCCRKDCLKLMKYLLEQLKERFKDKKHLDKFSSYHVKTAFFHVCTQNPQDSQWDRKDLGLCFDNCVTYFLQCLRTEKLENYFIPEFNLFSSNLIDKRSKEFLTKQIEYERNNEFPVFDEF
A homogenous cGAS enzymatic assay was developed with fluorescence polarization (FP) and time-resolved Forster resonance energy transfer (TR-FRET) readouts (FIG. 2A-2D). The cGAS assay was used to screen 100,000 compounds with full-length human cGAS (FIG. 2E), resulting in the identification of the novel chemotype of the disclosure, two of which are further developed in a structure-driven hit-to-lead study (Table 3, below). The assay performance was robust, as indicated by respective Z and Z′ values of 0.59 and 0.63 in the screen; compounds with polarization values greater than three SDs from the mean were considered hits; a scatterplot from 10 plates (3,200 compounds) is shown in FIG. 2D.
Biochemical and biophysical analysis: Potency and MOA studies, including Mn^2+ sensitivity, are performed using the cGAS enzymatic assay. Dose response experiments are used to determine IC50 values under basal conditions (5 mM MgCl2, 100 μM ATP/GTP), and with the addition of physiological levels of Mn (0.2 mM) using human and mouse cGAS. Ligand optimization is driven by potency with the human enzyme; potency with mouse cGAS informs selection of an appropriate disease model for efficacy studies. Competition with ATP and GTP is assessed by comparing basal IC50 values to those in the presence of saturating ATP or GTP, and subsequently confirmed by measuring velocity vs. substrate at varying ATP or GTP levels. Inhibitor residence times (1/koff) are used as a key parameter for prioritizing compounds and driving SAR, because a longer residence time often results from an allosteric mechanism, and can also correlate with improved cellular activity. The cGAS enzymatic assay is used with the jump dilution method to measure residence times (inhibitor dissociation rates), as described for kinases using the very similar ADP assay. Biophysical methods, including SPR and TSA, are used as orthologous methods for residence time measurements and kd estimates.
(In general: Time-resolved FRET reads energy transfer from a long-lived donor to a nearby acceptor.)

The mark [1] stands for this setting: with Mn^2+, read-out: Inhibition cGAS + Mn^2+.

As for `Cc1nc(N2C[C@@H](Nc3n[nH]c4ccccc34)C[C@H]2C(=O)O)c2oc3ccccc3c2n1` [Compound 55, (2S,4S)-4-((1H-indazol-3-yl)amino)-1-(2-methylbenzofuro[3,2-d]pyrimidin-4-yl)pyrrolidine-2-carboxylic acid], the IC50 by setting is: under setting [1], 1000 to 10000 nM; (read-out: Inhibition cGAS) 500 to 1000 nM.
As for `CCc1nc(N(C)[C@@H](C)C(=O)O)c2oc3ccccc3c2n1` [Compound 17, N-(2-ethylbenzofuro[3,2-d]pyrimidin-4-yl)-N-methyl-L-alanine], the IC50 by setting is: under setting [1], > 10000 nM; (read-out: Inhibition cGAS) 1000 to 10000 nM.
As to `CCc1nc(N2CCC[C@H]2C(=O)O)c2oc3ccccc3c2n1` [Compound 7, (2-ethylbenzofuro[3,2-d]pyrimidin-4-yl)-L-proline], the IC50 lay in the range of 1000 to 10000 nM under setting [1] and 1000 to 10000 nM (read-out: Inhibition cGAS).
For the compound `Cc1nc(N2[C@H](C(=O)O)C[C@@H]3C[C@@H]32)c2oc3ccccc3c2n1` [Compound 54, (1S,3S,5S)-2-(2-methylbenzofuro[3,2-d]pyrimidin-4-yl)-2-azabicyclo[3.1.0]hexane-3-carboxylic acid], the IC50 under setting [1] lay in the range of 1000 to 10000 nM and the IC50 (read-out: Inhibition cGAS) was 1000 to 10000 nM.
For `Cc1nc(N2C[C@@H](Nc3n[nH]cc3-c3ccccc3)C[C@H]2C(=O)O)c2oc3ccccc3c2n1` [Compound 41], the IC50 (read-out: Inhibition cGAS) was in the range of 500 to 1000 nM.
As to `O=C(O)[C@@H]1CCCN1c1nc(C2CCCCC2)nc2c1oc1ccccc12` [Compound 10, (2-cyclohexylbenzofuro[3,2-d]pyrimidin-4-yl)-L-proline], the IC50 runs as follows: under setting [1], > 10000 nM; (read-out: Inhibition cGAS) > 10000 nM.
With `Cc1nc(N2C[C@@H](NC(=O)[C@H]3CN3)C[C@H]2C(=O)O)c2oc3ccccc3c2n1` [Compound 44, (2S,4S)-4-((R)-aziridine-2-carboxamido)-1-(2-methylbenzofuro[3,2-d]pyrimidin-4-yl)pyrrolidine-2-carboxylic acid], the IC50 (read-out: Inhibition cGAS) fell in the range of 1000 to 10000 nM.
As for `Cc1cc(CC(=O)N[C@H]2C[C@@H](C(=O)O)N(c3nc(C)nc4c3oc3ccccc34)C2)ccn1` [Compound 67, (2S,4S)-1-(2-methylbenzofuro[3,2-d]pyrimidin-4-yl)-4-(2-(2-methylpyridin-4-yl)acetamido)pyrrolidine-2-carboxylic acid], the IC50 was > 10000 nM under setting [1] and 1000 to 10000 nM (read-out: Inhibition cGAS).
In the case of `O=C(O)[C@@H]1CCCN1c1nc(-c2ccccc2)nc2c1oc1ccccc12` [Compound 13, (2-phenylbenzofuro[3,2-d]pyrimidin-4-yl)-L-proline], the IC50 was > 10000 nM under setting [1] and > 10000 nM (read-out: Inhibition cGAS).
As for `Cc1nc(N2C[C@@H](Nc3cccnc3)C[C@H]2C(=O)O)c2oc3ccccc3c2n1` [Compound 39, (2S,4S)-1-(2-methylbenzofuro[3,2-d]pyrimidin-4-yl)-4-(pyridin-3-ylamino)pyrrolidine-2-carboxylic acid], the “Inhibition cGAS” value is recorded as “B, D”.
Regarding `CCc1nc(N(C)CC(=O)O)c2oc3ccccc3c2n1` [Compound 16, N-(2-ethylbenzofuro[3,2-d]pyrimidin-4-yl)-N-methylglycine], the IC50 by setting is: under setting [1], 1000 to 10000 nM; (read-out: Inhibition cGAS) 1000 to 10000 nM.
For `Cc1nc(N2C[C@@H](NC(=O)C3(c4ccncc4)CC3)C[C@H]2C(=O)O)c2oc3ccccc3c2n1` [Compound 62, (2S,4S)-1-(2-methylbenzofuro[3,2-d]pyrimidin-4-yl)-4-(1-(pyridin-4-yl)cyclopropane-1-carboxamido)pyrrolidine-2-carboxylic acid], the IC50 under setting [1] is 1000 to 10000 nM and the IC50 (read-out: Inhibition cGAS) was 500 to 1000 nM.
For `O=C(O)CNc1nc(-c2ccccc2)nc2c1oc1ccccc12` [Compound 5, (2-phenylbenzofuro[3,2-d]pyrimidin-4-yl)glycine], in that order: > 10000 nM and 1000 to 10000 nM.
For `O=C(O)[C@@H]1CCCN1c1nc(C2CCC2)nc2c1oc1ccccc12` [Compound 11, (2-cyclobutylbenzofuro[3,2-d]pyrimidin-4-yl)-L-proline], the IC50 by setting is: under setting [1], > 10000 nM; (read-out: Inhibition cGAS) 1000 to 10000 nM.
For `Cc1nc(N2C[C@@H](CC(=O)NC3CCCC3)C[C@H]2C(=O)O)c2oc3ccccc3c2n1` [Compound 51, (2S,4R)-4-(2-(cyclopentylamino)-2-oxoethyl)-1-(2-methylbenzofuro[3,2-d]pyrimidin-4-yl)pyrrolidine-2-carboxylic acid], in that order: 1000 to 10000 nM and 100 to 500 nM.
For `C[C@H]1C[C@@H](C(=O)O)N(c2nc(-c3ccccc3)nc3c2oc2ccccc23)C1` [Compound 21, (2S,4S)-4-methyl-1-(2-phenylbenzofuro[3,2-d]pyrimidin-4-yl)pyrrolidine-2-carboxylic acid], in that order: > 10000 nM and 1000 to 10000 nM.
Turning to `O=C(O)[C@@H]1CCCN1c1nc(-c2ccncc2)nc2c1oc1ccccc12` [Compound 18, (2-(pyridin-4-yl)benzofuro[3,2-d]pyrimidin-4-yl)-L-proline], the IC50 is > 10000 nM under setting [1] and > 10000 nM (read-out: Inhibition cGAS).
With `CC(C)c1nc(N2CCC[C@H]2C(=O)O)c2oc3ccccc3c2n1` [Compound 9, (2-isopropylbenzofuro[3,2-d]pyrimidin-4-yl)-L-proline], the IC50 was > 10000 nM under setting [1] and 1000 to 10000 nM (read-out: Inhibition cGAS).
Take `Cc1nc(N2C[C@@H](NC(N)=O)C[C@H]2C(=O)O)c2oc3ccccc3c2n1` [Compound 43, (2S,4S)-1-(2-methylbenzofuro[3,2-d]pyrimidin-4-yl)-4-ureidopyrrolidine-2-carboxylic acid]: the IC50 (read-out: Inhibition cGAS) fell in the range of 1000 to 10000 nM.
Regarding `CCc1nc(N2CCC[C@H]2C(=O)NS(=O)(=O)N(C)C)c2oc3ccccc3c2n1` [Compound 14, (S)-N-(N,N-dimethylsulfamoyl)-1-(2-ethylbenzofuro[3,2-d]pyrimidin-4-yl)pyrrolidine-2-carboxamide], the IC50 under setting [1] is > 10000 nM and the IC50 (read-out: Inhibition cGAS) was > 10000 nM.
On to `Cc1nc(N2C[C@@H](NC(=O)Cc3cccnc3N)C[C@H]2C(=O)O)c2oc3ccccc3c2n1` [Compound 49, (2S,4S)-4-(2-(2-aminopyridin-3-yl)acetamido)-1-(2-methylbenzofuro[3,2-d]pyrimidin-4-yl)pyrrolidine-2-carboxylic acid], for which the IC50 (read-out: Inhibition cGAS) lay in the range of 500 to 1000 nM.
In the case of `Cc1nc(N2C[C@@H](Nc3n[nH]cc3C(C)C)C[C@H]2C(=O)O)c2oc3ccccc3c2n1` [Compound 59, (2S,4S)-4-((4-isopropyl-1H-pyrazol-3-yl)amino)-1-(2-methylbenzofuro[3,2-d]pyrimidin-4-yl)pyrrolidine-2-carboxylic acid], the IC50 is 1000 to 10000 nM under setting [1] and 100 to 500 nM (read-out: Inhibition cGAS).
For `Cc1nc(N2C[C@@H](CC(=O)Nc3ccccc3)C[C@H]2C(=O)O)c2oc3ccccc3c2n1` [Compound 52, (2S,4R)-1-(2-methylbenzofuro[3,2-d]pyrimidin-4-yl)-4-(2-oxo-2-(phenylamino)ethyl)pyrrolidine-2-carboxylic acid], the IC50 runs as follows: under setting [1], 1000 to 10000 nM; (read-out: Inhibition cGAS) 100 to 500 nM.
With `Cc1nc(N2C[C@@H](Nc3cc[nH]n3)C[C@H]2C(=O)O)c2oc3ccccc3c2n1` [Compound 26, (2S,4S)-4-((1H-pyrazol-3-yl)amino)-1-(2-methylbenzofuro[3,2-d]pyrimidin-4-yl)pyrrolidine-2-carboxylic acid], for the setting “read-out: Inhibition cGAS”, the IC50 was 100 to 500 nM.
Still for that read-out and setting: under `CNC(=O)C[C@H]1C[C@@H](C(=O)O)N(c2nc(C)nc3c2oc2ccccc23)C1` [Compound 35, (2S,4R)-4-(2-(methylamino)-2-oxoethyl)-1-(2-methylbenzofuro[3,2-d]pyrimidin-4-yl)pyrrolidine-2-carboxylic acid] stands 500 to 1000 nM.
For `O=C(O)[C@@H]1CCCN1c1nc(C2CC2)nc2c1oc1ccccc12` [Compound 8, (2-cyclopropylbenzofuro[3,2-d]pyrimidin-4-yl)-L-proline], the IC50 is, setting by setting: under setting [1], > 10000 nM; (read-out: Inhibition cGAS) 1000 to 10000 nM.
For `Cc1nc(N2C[C@@H](NC(=O)C(C)(C)c3cn[nH]c3)C[C@H]2C(=O)O)c2oc3ccccc3c2n1` [Compound 66, (2S,4S)-4-(2-methyl-2-(1H-pyrazol-4-yl)propanamido)-1-(2-methylbenzofuro[3,2-d]pyrimidin-4-yl)pyrrolidine-2-carboxylic acid], in that order: 1000 to 10000 nM and 100 to 500 nM.
For `C[C@H](Nc1nc(-c2ccccc2)nc2c1oc1ccccc12)C(=O)O` [Compound 3, (2-phenylbenzofuro[3,2-d]pyrimidin-4-yl)-L-alanine] the same measures were > 10000 nM and 1000 to 10000 nM.
For `COc1nc(N2CCC[C@H]2C(=O)O)c2oc3ccccc3c2n1` [Compound 20, (2-methoxybenzofuro[3,2-d]pyrimidin-4-yl)-L-proline], in that order: 1000 to 10000 nM and 500 to 1000 nM.
